# Experimental data published in ChEMBL document CHEMBL2417497, “Lead identification of novel and selective TYK2 inhibitors” (Eur J Med Chem, 2013).
# Tests used:
# [1] = physchem; conditions: octanol/aqueous phosphate buffered saline, pH 7.4
# [2] = physchem; conditions: aqueous, pH 7.4
# [3] = in vitro; conditions: plasma
# [4] = in vivo; conditions: Sprague-Dawley, rat, po, 5 mg/kg
# [5] = in vitro; conditions: mouse, plasma
# [6] = in vivo; conditions: Sprague-Dawley, rat, po, 5 mg/kg; remark: listed apart in the source
# [7] = in vitro; conditions: human, plasma
# [8] = in vitro; conditions: rat, plasma
# [9] = in vivo; conditions: mouse, po, 5 mg/kg
logD at 1 h [1],solubility [2] [µg/mL],fraction unbound [3],bioavailability [4] [%],fraction unbound [5],Cmax [6] [nM],fraction unbound [7],fraction unbound [8],Cmax [9] [nM],SMILES
2.2,630,0.3,–,–,–,–,–,–,O=C(Nc1ccncc1)c1c(Cl)cccc1Cl
–,–,–,105,0.04,2500,0.05,0.04,1600,O=C(Nc1ccnc(NC(=O)C2CC2)c1)c1c(Cl)cccc1Cl
